In ChEMBL document CHEMBL2073824, “Mechanism of the pharmacokinetic interaction between methotrexate and benzimidazoles: potential role for breast cancer resistance protein in clinical drug-drug interactions” (Cancer Res, 2004):

Experiments:
[1] = molecular target: T1, Broad substrate specificity ATP-binding cassette transporter ABCG2 (Homo sapiens, UniProt Q9UNQ0); assay: TP_TRANSPORTER: inhibition of MTX uptake in membrane vesicle from BCRP-expressing Sf9 cell; type: functional, cell membranes
T1 sequence (Q9UNQ0 whole entry): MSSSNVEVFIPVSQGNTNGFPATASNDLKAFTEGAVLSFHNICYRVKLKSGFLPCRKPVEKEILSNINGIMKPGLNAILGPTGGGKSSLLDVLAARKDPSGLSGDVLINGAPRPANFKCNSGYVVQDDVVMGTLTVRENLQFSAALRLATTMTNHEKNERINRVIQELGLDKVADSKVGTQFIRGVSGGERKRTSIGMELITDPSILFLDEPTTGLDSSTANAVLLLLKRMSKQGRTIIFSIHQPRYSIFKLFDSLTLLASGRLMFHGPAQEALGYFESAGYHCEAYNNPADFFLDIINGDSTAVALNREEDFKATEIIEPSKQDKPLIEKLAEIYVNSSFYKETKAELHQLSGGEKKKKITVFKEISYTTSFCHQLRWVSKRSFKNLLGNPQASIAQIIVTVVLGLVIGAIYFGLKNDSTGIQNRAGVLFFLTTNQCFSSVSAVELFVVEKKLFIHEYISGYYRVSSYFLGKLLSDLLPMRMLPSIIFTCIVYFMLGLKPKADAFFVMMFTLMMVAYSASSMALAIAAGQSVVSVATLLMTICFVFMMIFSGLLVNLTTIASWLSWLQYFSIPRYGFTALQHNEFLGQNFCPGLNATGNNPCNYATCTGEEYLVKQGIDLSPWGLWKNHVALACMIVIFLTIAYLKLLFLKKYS

[2] = molecular target: T1, Broad substrate specificity ATP-binding cassette transporter ABCG2; assay: TP_TRANSPORTER: uptake in membrane vesicle from BCRP-expressing Sf9 cells; type: functional, cell membranes
[3] = molecular target: T2, Broad substrate specificity ATP-binding cassette transporter ABCG2 (Mus musculus, UniProt Q7TMS5); assay: TP_TRANSPORTER: transepithelial transport in Bcrp-expressing MDCKII cells; type: functional, cell-based; conditions: dog, mdck-ii
T2 sequence (Q7TMS5 whole entry): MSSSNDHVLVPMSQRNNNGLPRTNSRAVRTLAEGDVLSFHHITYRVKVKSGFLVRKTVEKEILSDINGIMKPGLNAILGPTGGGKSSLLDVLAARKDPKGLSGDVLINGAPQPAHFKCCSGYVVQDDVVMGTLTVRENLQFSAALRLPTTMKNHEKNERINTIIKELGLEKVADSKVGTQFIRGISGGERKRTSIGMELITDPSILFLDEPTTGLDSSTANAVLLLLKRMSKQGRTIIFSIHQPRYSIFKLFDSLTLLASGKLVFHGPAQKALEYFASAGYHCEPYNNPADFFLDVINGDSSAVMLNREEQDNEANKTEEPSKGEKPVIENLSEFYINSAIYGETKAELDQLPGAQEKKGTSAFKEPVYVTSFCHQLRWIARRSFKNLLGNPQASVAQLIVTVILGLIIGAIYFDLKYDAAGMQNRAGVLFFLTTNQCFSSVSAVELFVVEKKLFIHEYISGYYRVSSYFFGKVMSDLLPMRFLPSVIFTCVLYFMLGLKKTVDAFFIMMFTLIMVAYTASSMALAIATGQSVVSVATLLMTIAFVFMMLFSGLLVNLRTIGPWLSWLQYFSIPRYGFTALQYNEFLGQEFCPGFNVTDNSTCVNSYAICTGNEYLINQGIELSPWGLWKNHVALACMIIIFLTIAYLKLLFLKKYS

COc1ccc2[nH]c([S+]([O-])Cc3ncc(C)c(OC)c3C)nc2c1 (stereo not given) [OMEPRAZOLE]
IC50 ([1]; sf9): inhibitor [IC50=10-50uM]

CN(Cc1cnc2nc(N)nc(N)c2n1)c1ccc(C(=O)N[C@@H](CCC(=O)O)C(=O)O)cc1 [METHOTREXATE]
Activity [2]: substrate []

COc1ccnc(C[S+]([O-])c2nc3ccc(OC(F)F)cc3[nH]2)c1OC (stereo not given) [PANTOPRAZOLE]
Km [3]: substrate [Km=0.1-0.2mM]
IC50 ([1]; read-out: IC50): 10 µM

CC[C@@]1(O)C(=O)OCc2c1cc1n(c2=O)Cc2cc3c(CN(C)C)c(O)ccc3nc2-1 [TOPOTECAN]
Activity [3]: substrate []
